Reference: the supplement of paper PMC13380429

Columns and labels:
Conditions in all cases: 72 h
Vero E6 [1] = assay: drug sensitivity score (DSS) for viability; higher = more toxic; extreme values may be limits of the assay
U2OS [2] = assay: as above
HepG2 [3] = assay: as above
Caco-2 [4] = assay: as above
Vero E6 [5] = assay: cell viability relative to DMSO; higher = less toxic
U2OS [6] = assay: as above
HepG2 [7] = assay: as above
Caco-2 [8] = assay: as above
Vero E6 [9] = assay: relative viability EC50 (midpoint between 100% and the lowest measured viability); higher = less toxic
U2OS [10] = assay: as above
HepG2 [11] = assay: as above
Caco-2 [12] = assay: as above
Calu-3 [13] = assay: drug sensitivity score (DSS) for viability; higher = more toxic; extreme values may be limits of the assay
Calu-3 [14] = assay: cell viability relative to DMSO; higher = less toxic
Calu-3 [15] = assay: relative viability EC50 (midpoint between 100% and the lowest measured viability); higher = less toxic

Structure (SMILES)	drug sensitivity score (Vero E6 [1])	drug sensitivity score (U2OS [2])	drug sensitivity score (HepG2 [3])	drug sensitivity score (Caco-2 [4])	cell viability (Vero E6 [5]; 1 nM)	cell viability (Vero E6 [5]; 10 nM)	cell viability (Vero E6 [5]; 100 nM)	cell viability (Vero E6 [5]; 1000 nM)	cell viability (Vero E6 [5]; 10000 nM)	cell viability (U2OS [6]; 1 nM)	cell viability (U2OS [6]; 10 nM)	cell viability (U2OS [6]; 100 nM)	cell viability (U2OS [6]; 1000 nM)	cell viability (U2OS [6]; 10000 nM)	cell viability (HepG2 [7]; 1 nM)	cell viability (HepG2 [7]; 10 nM)	cell viability (HepG2 [7]; 100 nM)	cell viability (HepG2 [7]; 1000 nM)	cell viability (HepG2 [7]; 10000 nM)	cell viability (Caco-2 [8]; 1 nM)	cell viability (Caco-2 [8]; 10 nM)	cell viability (Caco-2 [8]; 100 nM)	cell viability (Caco-2 [8]; 1000 nM)	cell viability (Caco-2 [8]; 10000 nM)	relative viability EC50 (Vero E6 [9])	relative viability EC50 (U2OS [10])	relative viability EC50 (HepG2 [11])	relative viability EC50 (Caco-2 [12])	drug sensitivity score (Calu-3 [13])	cell viability (Calu-3 [14]; 1 nM)	cell viability (Calu-3 [14]; 10 nM)	cell viability (Calu-3 [14]; 100 nM)	cell viability (Calu-3 [14]; 1000 nM)	cell viability (Calu-3 [14]; 10000 nM)	relative viability EC50 (Calu-3 [15])
OCCCNc1cc(-c2ccnc(Nc3cccc(Cl)c3)n2)ccn1	20.1	18.5	17.9	14.9	94.5%	108%	81.9%	5.3%	15.6%	101%	95%	90.9%	5.8%	13%	93.6%	111%	93%	7.7%	5.6%	95.9%	97.1%	91.6%	26.1%	31.8%	178 nM	236 nM	266 nM	223 nM							
CN1CCN(c2cc(-c3ccccc3)nc(N)n2)CC1	0	0	0	0	98.9%	95.4%	90.5%	94.8%	103%	96.8%	98.3%	97.6%	98%	102%	87.5%	105%	87.8%	95.6%	116%	92.8%	99%	95.1%	91.8%	93%	> 10000 nM	> 10000 nM	> 10000 nM	> 10000 nM							
CC(C)n1c(/C=C/[C@@H](O)C[C@@H](O)CC(=O)O)c(-c2ccc(F)cc2)c2ccccc21 [fluvastatin]	4.9	2.9	2.5	1.7	100%	100%	103%	91.2%	37.5%	99.6%	109%	95.7%	101%	45.1%	97%	104%	99.2%	90.7%	71.3%	92.4%	103%	101%	89.1%	80%	2050 nM	3240 nM		> 10000 nM	1.3	99%	96.7%	96.6%	105%	65.4%	
COc1ccc(-n2c(SCc3nc(-c4ccc(C)cc4)no3)nnc2-c2ccncc2)cc1 [JW-74]	3	1	0	0.1	108%	105%	107%	88.7%	68.2%	96.4%	98.3%	97%	96%	81.4%	99.7%	101%	96.2%	95.3%	93.3%	111%	114%	110%	100%	86.9%		> 10000 nM	> 10000 nM	> 10000 nM	0.9	95.1%	106%	109%	107%	70.8%	
CN(C)CCCC(=O)Nc1ccc(C(=O)Nc2cccc(Nc3ncc(Cl)c(-c4c[nH]c5ccccc45)n3)c2)cc1 [THZ1-R]	0	1.5	9.7	0.7	95.6%	98%	96.9%	93.4%	105%	96.2%	104%	97.6%	102%	65.1%	96%	91.4%	107%	65.7%	9.4%	92.2%	98.6%	94.5%	100%	77.9%	> 10000 nM		1220 nM	> 10000 nM	1.3	97.6%	103%	106%	94.8%	79.7%	> 10000 nM
O=C(CCCCCCCn1cc(-c2cccnc2)nn1)Nc1ccccc1-c1ccccc1 [GPP-78]	28.7	17.2	13.6	16.8	99.2%	103%	8.7%	2.1%	2.7%	101%	99.7%	110%	0.2%	0.1%	96.6%	92%	103%	25.4%	18.8%	109%	97.9%	106%	4%	3.6%	39.5 nM	365 nM	415 nM	352 nM							
